One assay relates to HCT-8 cells. Briefly: in vitro proliferating human colon adenocarcinoma (HCA) cell screen, HCT-8. It counts as cell-based. The conditions noted are these: HCT-8 cells, 60 to 65 hours. As for the experimental part: (a) One test protocol is the in vitro proliferating human colon adenocarcinoma (HCA) cell screen. In this test, HCT-8 cells (HCA cell line received from Yale University) are trypsinized using trypsin-EDTA. A single cell suspension is achieved by passing the cells through a 26 gauge needle with a 20-cc syringe. A cell suspension is prepared using RPMI 1640+10% FCS+50 μg/ml gentamicin sulfate with a cell concentration is approximately 30,000 cells/ml. The cell suspension is dispensed in Linbro 24-well plates; 1 ml/well. The plates are incubated for approximately 48 hours at 37° C. in a 5% CO2 atmosphere. At this time test compounds are added in the appropriate concentration. Five μl of the 200 μg/ml stock solution is added to each well in a primary test. […] of the appropriate dilution is added to each well for a titration test. The plates are reincubated an additional 60 to 65 hours at 37° C. in a 5% CO 2 atmosphere. The cells are lysed using a mix of cationic surfactant, glacial acetic acid, and sodium chloride. Two ml of the lysed cell suspension from each well is added to 8 ml of diluent. The number of nuclei is determined using a Coulter counter (ZBI model), and a percent growth for each drug concentration is calculated. From this, and ID50 (molar concentration of compound that results in 50% inhibition of growth) is determined.

In another assay the test system is Alcaligenes viscolactis. Briefly: in vitro antibacterial (ABMF) microdilution susceptibility test. Format: cell-based. The conditions noted are these: read-out: ABMF Test M.I.C. A. visc. The text has this:
(§1) (d) Still another test protocol is the in vitro antibacterial (ABMF) test which is a recognized standard microdilution susceptibility procedure in Mueller-Hinton broth against gram-positive and gram-negative bacterial test organisms. The procedure is a modification of a state-of-the-art procedure reported in Manual of Clinical Microbiology, Lennette, E. H., ed., by Barry, A. L. and C. Thornsberry at pages 463-474 and by Gavan, T. L. and A. L. Barry at pages 459-462, American Society for Microbiology, Washington, 1980.
(§2) In the test, a given bacterial culture is used to inoculate individaul test wells of microdilution trays containing growth medium and test compound, the latter in a microdilution series: 1000, 333, 111, 37, 12, 4, 1.4, and 0.46 micrograms per milliliter. […] For convenience, values are reported for Escherichia coli, Branhamella catarrhalis, Alcaligenes viscolactis, Streptococcus pneumoniae, and Bacillus cereus
For orientation: In broth dilution the organism is exposed to a series of concentrations in liquid medium.

The next assay has as its system Bacillus cereus. The description is as above. Format: cell-based. The conditions noted are these: read-out: ABMF Test M.I.C. B. cere.
Excerpt: as §1, §2

The subject of a further assay is Branhamella catarrhalis. The description is as above. Format: cell-based. The conditions noted are these: Moraxella catarrhalis, read-out: ABMF Test M.I.C. B. cata.
Excerpt: as §1, §2

Another assay concerns Escherichia coli. The description is as above. Format: cell-based. As to conditions: read-out: ABMF Test M.I.C. E. coli.
Excerpt: as §1, §2

Another assay has as its system Streptococcus pneumoniae. The assay is described as above. It counts as cell-based. As to conditions: read-out: ABMF Test M.I.C. S. pneu.
Excerpt: as §1, §2

For assay [1], the system named is lymphocytic leukemia P388. Kind of assay: in vivo lymphocytic leukemia P388 test. On the set-up: species or system CD2 F1 mice. As to conditions: Mus musculus, P388, ip, 120 h, intraperitoneally once daily for five days, read-out: P388 in vivo T/C × 100. As for the experimental part:
Another test protocol is the in vivo lymphocytic leukemia P388 test. The animals used are either male or female CD2 F1 mice, six or seven animals per test group. The tumor transplant is by intraperitoneal injection of dilute ascitic fluid containing cells of lymphocytic leukemia P388. The test compounds are administered intraperitoneally once daily for five consecutive days at various doses following tumor inoculation. The animals are weighed and survivors are recorded on a regular basis for 30 days. A compound is designated "toxic" if, at a given dose, all animals died prior to four days after the first injection of drug. A ratio of survival time for treated (T)/control (C) animals is calculated. A criterion for efficacy is a ratio T/C times 100 greater than or equal to 125. See Cancer Chemotherapy Reports, Part 3, 3, 1 (1972) for a comprehensive discussion of the protocol.

The mark [2] stands for this setting: Mueller-Hinton broth, 37° C., 16-24 hours.

Structures can show the parent of a compound that is named as a salt. Where two headings read alike, the source gives them in different places. Bounds are passed on as bounds.

As to `COc1cc(OC)c2c(c1)-c1nn(CCN(C)C)c3ccc([N+](=O)[O-])c(c13)N2.CS(=O)(=O)O` [Example 38, 7,9-Dimethoxy-N,N-dimethyl-5-nitropyrazolo[3,4,5-kl]acridine-2(6H)-ethanamine, methanesulfonate (1:1)], the IC50 in the assay on HCT-8 cells (ED50, read-out: HCA ED50 Avg.) was determined as 64 nM. The MIC in the assay with Alcaligenes viscolactis (setting [2]) was less than 0.46 µg/mL; in the assay with Bacillus cereus (setting [2]), less than 0.46 µg/mL; with Branhamella catarrhalis (setting [2]), 1.4 µg/mL; in the assay on Escherichia coli (setting [2]), 1000 µg/mL; in the assay on Streptococcus pneumoniae (setting [2]) it was less than 0.46 µg/mL. The response vs control in vivo at 100 mg/kg in assay [1] (100 mg/kg) was 119%. In assay [1] (200 mg/kg), the response vs control in vivo at 200 mg/kg turned out to be 128%.
As for `CCCC(=O)Oc1ccc2c(c1)-c1nn(CCN(CC)CC)c3ccc([N+](=O)[O-])c(c13)N2` [Example 29, [2-[2-(Diethylamino)ethyl]-2,6-dihydro-5-nitropyrazolo[3,4,5-kl]acridin-9-yl]butanoic ester, methanesulfonate (salt) (1:1)], the MIC in the assay with Alcaligenes viscolactis (setting [2]) was less than 0.46 µg/mL; with Bacillus cereus (setting [2]), 4.1 µg/mL; with Branhamella catarrhalis (setting [2]) it was 1.4 µg/mL; with Escherichia coli (setting [2]) it was 333 µg/mL; in the assay on Streptococcus pneumoniae (setting [2]), less than 0.46 µg/mL. For the same molecule, in assay [1], the response vs control in vivo at 6.25 mg/kg is 252%.
With `CCN(CC)CCn1nc2c3c(c([N+](=O)[O-])ccc31)Nc1c(OC)cc(OC)cc1-2` [Example 23, N,N-Diethyl-7,9-dimethoxy-5-nitropyrazolo[3,4,5-kl]acridine-2(6H)-ethanamine, methanesulfonate, hydrate (1:1)], in the assay on HCT-8 cells (ED50, read-out: HCA ED50 Avg.), the IC50 was 490 nM. The MIC in the assay on Alcaligenes viscolactis (setting [2]) is less than 0.46 µg/mL; with Bacillus cereus (setting [2]) it was less than 0.46 µg/mL; in the assay with Branhamella catarrhalis (setting [2]), 1.4 µg/mL; in the assay with Escherichia coli (setting [2]), 37 µg/mL; in the assay with Streptococcus pneumoniae (setting [2]) it was less than 0.46 µg/mL.
On to `CN(C)CCCn1nc2c3c(c([N+](=O)[O-])ccc31)Nc1ccc(O)cc1-2` [Example 44, 2-[3-(Dimethylamino)propyl]-2,6-dihydro-5-nitropyrazolo[3,4,5-kl]acridin-9-ol, methanesulfonate], for which the IC50 with HCT-8 cells (ED50, read-out: HCA ED50 Avg.) was 12 nM. The MIC in the assay with Alcaligenes viscolactis (setting [2]) was less than 0.46 µg/mL; in the assay with Bacillus cereus (setting [2]), 0.46 µg/mL; with Branhamella catarrhalis (setting [2]), less than 0.46 µg/mL; in the assay with Escherichia coli (setting [2]), less than 0.46 µg/mL; in the assay with Streptococcus pneumoniae (setting [2]), 0.46 µg/mL. Also, in assay [1] (0.39 mg/kg), the response vs control in vivo at 0.39 mg/kg worked out at 162%. The response vs control in vivo at 0.78 mg/kg in assay [1] (0.78 mg/kg) turned out to be 182%. Also, the response vs control in vivo at 1.56 mg/kg in assay [1] stood at 200%. For the same molecule, in assay [1], the response vs control in vivo at 3.12 mg/kg is 270%.
In the case of `CCOc1ccc2c(c1)-c1nn(CCN(CC)CC)c3ccc([N+](=O)[O-])c(c13)N2.CS(=O)(=O)O` [Example 18, N,N-Diethyl-9-ethoxy-5-nitropyrazolo[3,4,5-kl]acridine-2(6H)-ethanamine, methanesulfonate (1:1)], the IC50 in the assay on HCT-8 cells (ED50, read-out: HCA ED50 Avg.) stood at 110 nM. Also, the MIC in the assay on Alcaligenes viscolactis (setting [2]) was less than 0.46 µg/mL; with Bacillus cereus (setting [2]) it was 12.3 µg/mL; in the assay with Branhamella catarrhalis (setting [2]), 1.4 µg/mL; with Escherichia coli (setting [2]), 12.3 µg/mL; in the assay on Streptococcus pneumoniae (setting [2]), less than 0.46 µg/mL. Besides, the response vs control in vivo at 3.13 mg/kg in assay [1] (3.13 mg/kg) is 135%. Moreover, the response vs control in vivo at 6.25 mg/kg in assay [1] stood at 169%. Further, the response vs control in vivo at 12.5 mg/kg in assay [1] came to 201%.
For `CCN(CC)CCn1nc2c3c(c([N+](=O)[O-])ccc31)Nc1ccc(OCc3ccccc3)cc1-2` [Example 11, monomethanesulfonate], the IC50 with HCT-8 cells (molar concentration for 50% inhibition of growth, read-out: HCA in vitro ID50 avg.) stood at 2300 nM. Moreover, in assay [1], the response vs control in vivo at 12.5 mg/kg was found to be 127%. For the same molecule, in assay [1] (25 mg/kg), the response vs control in vivo at 25 mg/kg came out at 141%. In assay [1] (50 mg/kg), the response vs control in vivo at 50 mg/kg is 194%.
As to `CCCCOc1ccc2c(c1)-c1nn(CCN(CC)CC)c3ccc([N+](=O)[O-])c(c13)N2` [Example 20, 9-Butoxy-N,N-diethyl-5-nitropyrazolo[3,4,5-kl]acridine-2(6H)-ethanamine, methanesulfonate], the IC50 in the assay on HCT-8 cells (ED50, read-out: HCA ED50 Avg.) amounted to 73 nM. For the same molecule, in assay [1], the response vs control in vivo at 1.56 mg/kg turned out to be 124%, the response vs control in vivo at 3.12 mg/kg came out at 125% and the response vs control in vivo at 6.25 mg/kg worked out at 160%.
Regarding `CC[N+]([O-])(CC)CCn1nc2c3c(c([N+](=O)[O-])ccc31)Nc1ccccc1-2` [Example 35, N,N-Diethyl-5-nitropyrazolo[3,4,5-kl]acridine-2(6H)-ethanamine, N-oxide, methanesulfonate salt (5:6), hydrate (4:3)], the MIC with Alcaligenes viscolactis (setting [2]) was 4.1 µg/mL; in the assay on Bacillus cereus (setting [2]), greater than 1000 µg/mL; with Branhamella catarrhalis (setting [2]), 12.3 µg/mL; with Escherichia coli (setting [2]) it was 12.3 µg/mL; with Streptococcus pneumoniae (setting [2]), 12.3 µg/mL. The response vs control in vivo at 12.5 mg/kg in assay [1] is 167%.
With `CCN(CC)CCn1nc2c3c(c([N+](=O)[O-])ccc31)Nc1ccc(C)cc1-2` [Example 34, N,N-Diethyl-9-methyl-5-nitropyrazolo[3,4,5-kl]acridine-2(6H)-ethanamine, methanesulfonate (salt) (1:1)], the IC50 with HCT-8 cells (ED50, read-out: HCA ED50 Avg.) came to 790 nM. Also, the MIC in the assay with Alcaligenes viscolactis (setting [2]) was less than 0.46 µg/mL; with Bacillus cereus (setting [2]), less than 0.46 µg/mL; in the assay with Branhamella catarrhalis (setting [2]) it was less than 0.46 µg/mL; with Escherichia coli (setting [2]), 12.3 µg/mL; in the assay with Streptococcus pneumoniae (setting [2]) it was less than 0.46 µg/mL.
Take `CCN(CC)CCn1nc2c([N+](=O)[O-])cc([N+](=O)[O-])c3c2c1-c1cc(OC)ccc1N3.CS(=O)(=O)O` [Example 56, N,N-Diethyl-9-methoxy-3,5-dinitropyrazolo[3,4,5-kl]acridine-1(6H)-ethanamine, methanesulfonate]: the MIC was less than 0.46 µg/mL in the assay on Alcaligenes viscolactis; 333 µg/mL with Bacillus cereus; 37 µg/mL in the assay with Branhamella catarrhalis; 1000 µg/mL with Escherichia coli; 12.3 µg/mL with Streptococcus pneumoniae.

Source of the values: patent US4555572A, “Pyrazolo[3,4,5-kl]acridine compositions and methods for their production and use” (Warner-Lambert Company, priority 1984, dated 1985).
